The values that follow come from US7199121B2, “Protein tyrosine phosphatase inhibitor” (Institute of Molecular and Cell Biology, priority 2000, dated 2007).

For the experiment, the system named is Yop. The settings on record: for percentage activity of Yop relative to control: 1 μM compound, phosphatase 0.1 nM, pNPP, average of three enzyme preparations ± S.D.

For the molecule `[Na+].[Na+].[Na+].[O]=[V]([O-])([O-])[O-]` [Na3VO4, sodium orthovanadate, reference compound], the “percentage activity of Yop relative to control” value turned out to be 14 ± 1.0%. Consider `Cn1nc2c(nc1=O)c(=O)n(C)c(=O)n2C` [Compound 3, 2,8-dihydro-2,6,8-trimethyl-pyrimido[5,4-e]-1,2,4-triazine-3,5,7(6H)-trione], for which the “percentage activity of Yop relative to control” value is on record as 10 ± 1.0%. The “inhibition of Yop” value (1 μM) is around 90%. Where the note is “neutral pH, results not shown”, the “PTP inhibition of Yop at neutral pH” value is “continues to behave as a PTP inhibitor”. In the case of `Cn1nc2c(nc1=O)n(C)c(=O)n2C` [Compound 4, 2,5,7-trimethyl-2,7-dihydro-5H-imidazo[4,5-e]-1,2,4-triazine-3,6-dione], the “percentage activity of Yop relative to control” value came out at 95 ± 4.0%.
